From US6071907A, “Tricyclic compounds useful as FPT inhibitors” (Schering Corporation, priority 1997, dated 2000) come the findings set out here.

The target in the experiment is T1, partially purified rat brain farnesyl protein transferase (FPT) (Rattus norvegicus, UniProt Q02293+Q04631).
T1 construct: partially purified rat brain farnesyl protein transferase (FPT); from tissue; host or cells: rat brain (partially purified enzyme)
Briefly: FPT IC50 (inhibition of farnesyl protein transferase, in vitro enzyme assay); Ras-CVLS farnesylation. It is filed as biochemical. On the procedure: In vitro enzyme assays: FPT IC50 (inhibition of farnesyl protein transferase, in vitro enzyme assay) are determined by the methods disclosed in […] or WO 95/10516.

The mark [1] stands for this setting: in vitro enzyme assay, Ras-CVLS farnesylation, partially purified rat brain FPT, read-out: FPT IC50.

Read-outs that look alike come from different tables or passages of the source.

In general, IC50 refers to the concentration that inhibits the measured activity by half. `CCC1Cc2cc(Cl)cc(Cl)c2C(N2CCN(C(=O)Cc3cc[n+]([O-])cc3)CC2)c2ncc(Br)cc21` (racemic) [Example 3] yielded an IC50 of 6 nM.
Regarding `O=C(CN1C(=O)c2ccccc2C1=O)N1CCC(C2c3ncc(Br)cc3CCc3cc(Cl)cc(Cl)c32)CC1` (single isomer, unassigned; (+)) [Example 4, (+)-4-(3-bromo-8,10-dichloro-6,11-dihydro-5H-benzo[5,6]cyclohepta[1,2-b]pyridin-11-yl)-1-[2-(1,3-dihydro-1,3-dioxo-2H-isoindol-2-yl)-1-oxoethyl]piperidine], the IC50 under setting [1] worked out at 18.6 nM.
As for `O=C(CN1CCSCC1)N1CCC(C2c3ccc(Cl)c(Br)c3CCc3cc(Br)cnc32)CC1` (centres unmarked) [Example 1, 4-[8-Chloro-3,7-dibromo-5,6-dihydro-11H-benzo [5, 6]cyclohepta[1,2-b]pyridin-11-yl]-1-(4-thiomorpholinylacetyl)piperidine], the IC50 under setting [1] amounted to 8.9 nM.
As for `O=C(CN1CC[S+]([O-])CC1)N1CCC(C2c3ccc(Cl)c(Br)c3CCc3cc(Br)cnc32)CC1` (centres unmarked) [Example 2, 4-[8-Chloro-3,7-dibromo-6,11-dihydro-5H-benzo[5,6]cyclohepta[1,2-b]pyridin-11-yl]-1-(4-thiomorpholinylacetyl)piperidine S-oxide], under setting [1], the IC50 was 6.8 nM.
With `CCC(=O)N1CCC(CC(=O)N2CCC([C@H]3c4ncc(Br)cc4CCc4cc(Cl)cc(Br)c43)CC2)CC1` [Example 5, (+)-4-(3,10-Dibromo-8-chloro-6,11-dihydro-5H-benzo[5,6]cyclohepta[1,2-b]pyridin-11 (R)-yl)-1-[(1-oxopropyl-4-piperidinyl)acetyl]piperidine], the IC50 under setting [1] came out at 6.8 nM.
